Marks after values point to notes of the source that are not given here.
How the values were obtained:
[1] = molecular target: T1, human 5-HT1A receptor (Homo sapiens, UniProt P08908); experiment: cAMP HTRF functional assay, 5-HT1A agonist mode; assay type: cell-based; conditions: for 5-HT1A functional character: agonist mode, summary of Tables 4-5; for Top % Activation at maximal concentration, 5-HT1A (agonist mode): cAMP, % of reference agonist activity at its EC100
T1 sequence (P08908 1-422): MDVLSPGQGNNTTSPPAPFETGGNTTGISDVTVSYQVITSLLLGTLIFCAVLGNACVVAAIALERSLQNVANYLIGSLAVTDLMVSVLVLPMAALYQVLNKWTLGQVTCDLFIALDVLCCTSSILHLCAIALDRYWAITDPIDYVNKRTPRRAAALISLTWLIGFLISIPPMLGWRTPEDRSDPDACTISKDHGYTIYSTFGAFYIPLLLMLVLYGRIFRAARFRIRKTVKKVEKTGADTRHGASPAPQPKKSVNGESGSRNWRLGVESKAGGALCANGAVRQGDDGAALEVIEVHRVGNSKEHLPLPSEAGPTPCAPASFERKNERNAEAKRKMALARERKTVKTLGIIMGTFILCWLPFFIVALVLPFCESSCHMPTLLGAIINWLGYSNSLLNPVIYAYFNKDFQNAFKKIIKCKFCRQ
Description: (§1) Example 4—Agonist or Antagonist Activity on Recombinant Human Dopamine and Serotonin Receptors Using IPOne HTRF and cAMP HTRF Assays
(§2) IP-One and cAMP HTRF assays are conducted with recombinant cell lines.
(§3) Agonist activity of test compounds is expressed as a percentage of the activity of the reference agonist at its EC100 concentration. Antagonist activity of the test compound is expressed as a percentage of the inhibition of reference agonist activity at its EC80 concentration.

[2] = molecular target: T2, 5-HT2A receptor (Homo sapiens, UniProt P28223); experiment: IP-One HTRF functional assay, 5-HT2A agonist mode; assay type: cell-based; parameters: expressed in transfected cells; conditions: % of reference agonist activity at its EC100
Description: as §1, §2, §3

[3] = molecular target: T2, 5-HT2A receptor; assay type: binding

T2 sequence (P28223 whole entry): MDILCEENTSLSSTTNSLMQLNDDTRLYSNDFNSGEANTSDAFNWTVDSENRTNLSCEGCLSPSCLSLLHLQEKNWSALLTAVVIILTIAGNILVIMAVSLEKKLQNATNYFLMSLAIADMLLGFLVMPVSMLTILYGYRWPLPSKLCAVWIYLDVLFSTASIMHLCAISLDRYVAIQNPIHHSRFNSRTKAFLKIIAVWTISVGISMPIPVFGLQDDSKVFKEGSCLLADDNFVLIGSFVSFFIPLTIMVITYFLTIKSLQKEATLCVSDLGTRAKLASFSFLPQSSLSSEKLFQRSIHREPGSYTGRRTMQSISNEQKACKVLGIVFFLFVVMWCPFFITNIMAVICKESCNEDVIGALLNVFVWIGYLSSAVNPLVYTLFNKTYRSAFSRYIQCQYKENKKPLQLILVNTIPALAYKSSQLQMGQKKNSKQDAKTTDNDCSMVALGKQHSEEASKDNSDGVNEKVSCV

5-HT1A functional character [1] | Top % Activation at maximal concentration, 5-HT1A (agonist mode) [1] | Top % Activation at maximal concentration, 5-HT2A (agonist mode) [2] | SMILES | binding to the 5-HT2A receptor in vitro [3]
strong 5-HT1A agonist | 71^d % | 84^d % | [2H]c1c([2H])c([2H])c(CN2CC[C@@H](NC(=O)c3cc(Cl)c(NC)cc3OC)[C@H]2C)c([2H])c1[2H] [Ex. 1 (10), 5-Chloro-N-((2R,3R)-1-((pentadeuterophenyl)methyl)-2-methylpyrrolidin-3-yl)-2-methoxy-4-(methylamino)benzamide] | –
5-HT1A partial agonist | 59% | 94% | [2H]C([2H])([2H])Oc1cc(NC)c(Cl)cc1C(=O)N[C@@H]1CCN(Cc2ccccc2)[C@@H]1C [Ex. 2 (18), 5-Chloro-N-((2R,3R)-1-((phenyl)methyl)-2-methylpyrrolidin-3-yl)-2-trideuteromethoxy-4-(methylamino)benzamide] | –
– | – | – | CCN1CCC[C@@H]1CNC(=O)c1c(OC)ccc(Br)c1OC [R-remoxipride] | do not even bind
– | – | – | CCN1CCC[C@H]1CNC(=O)c1c(OC)ccc(Br)c1OC [S-remoxipride] | do not even bind

Source: patent US12365650B2, “Deuterated organic compounds and uses thereof” (ENGRAIL THERAPEUTICS, INC., priority 2023, dated 2025)
